From patent US7901700B2, “Bifenthrin/acetamiprid compositions for control of general household pests” (FMC Corporation, priority 2004, dated 2011)

Assays:
German cockroach = German cockroach knockdown and mortality, spray chamber application; format: in vivo
Procedure: The compositions of the present invention were tested for German cockroach activity in the following manner:
(§1) Test compositions made up of TALSTARONE® MULTI-INSECTICIDE and a 70% wettable powder of acetamiprid in distilled water were prepared that provided appropriate rates of application of combinations of bifenthrin and acetamiprid, as well as bifenthrin and acetamiprid alone.
The spray chamber was then calibrated to deliver the treatment solution at the desired volume and pressure over the desired area on the chamber shelf. Spray chamber shelf height was adjusted to approximately 18 inches from the spray tip. The shelf was then covered with aluminum foil and the center of the shelf from front-to-back and end-to-end was determined. A desired number of 4.0″ sieve circles were marked on the aluminum foil with a permanent marker. The inside of a desired number of PVC rings were coated with a petroleum jelly/mineral oil mixture (1:2 ratio). The PVC rings were place on the sieve circles. 10 male German cockroaches were placed inside each PVC ring. The sprayer was activated and the test compound was applied to each PVC ring interior. German cockroach knockdown and mortality were measured.

Red Imported Fire Ant = experiment: Red imported fire ant knockdown and mortality, spray chamber application; format: in vivo, Solenopsis invicta
Procedure: The compositions of the present invention were tested for red imported fire ant activity in the following manner:
as §1
(§2) The spray chamber was then calibrated to deliver the treatment solution at the desired volume and pressure over the desired area on the chamber shelf. Spray chamber shelf height was adjusted to approximately 18 inches from the spray tip. The shelf was then covered with aluminum foil and the center of the shelf from front-to-back and end-to-end was determined. The red imported fire ants to be treated were collected and placed in screened 16 oz paper cups. The paper cups were placed onto the aluminum foil on the spray chamber shelf. The sprayer was activated and the test compound was applied to each paper cup interior. Red imported fire ant knockdown and mortality were measured.

House Flies = experiment: House fly knockdown and mortality, hand held sprayer application; format: in vivo
Procedure: The compositions of the present invention were tested for house fly activity in the following manner:
as §1
A DeVilbiss hand held sprayer was used to deliver the treatment solution at the desired volume and pressure. The house flies to be treated were collected and placed in screened 16 oz paper cups. The hand held sprayer was activated and the test compound was applied to each paper cup interior. House fly knockdown and mortality were measured.

Bed Bugs = experiment: Bed bug mortality, spray chamber application; format: in vivo
Procedure: The compositions of the present invention were tested for bed bug activity in the following manner:
as §1
as §2, with “approximately 10.5” for “approximately 18”, “The bed bugs” for “The red imported fire ants”, “interior. Bed bug” for “interior. Red imported fire ant knockdown and”, “mortality was” for “mortality were”

[1] = Rate of Appln. 10 PPM (0.001% by weight)
[2] = Rate of Appln. 50 PPM (0.005% by weight)
[3] = Rate of Appln. 200 PPM (0.02% by weight)
[4] = Rate of Appln. 600 PPM (0.06% by weight)
[5] = Rate of Appln. 300 PPM (0.03% by weight)
[6] = Rate of Appln. 100 PPM (0.01% by weight)
[7] = Rate of Appln. 250 PPM (0.025% by weight)
[8] = Rate of Appln. 500 PPM (0.05% by weight)
[9] = Rate of Appln. 1000 PPM (0.10% by weight)
[10] = Rate of Appln. 125 PPM (0.0125% by weight)

Cc1c(COC(=O)[C@@H]2[C@H](/C=C(\Cl)C(F)(F)F)C2(C)C)cccc1-c1ccccc1 (racemic) [A, 2-methylbiphenyl-3-ylmethyl(Z)-(1RS)-cis-3-(2-chloro-3,3,3-trifluoroprop-1-enyl)-2,2-dimethylcyclopropanecarboxylate]
Knockdown Rate @ 10 minutes (German cockroach; [1]): 0%
Knockdown Rate @ 15 minutes (German cockroach; [1]): 3%
Knockdown Rate @ 30 minutes (German cockroach; [1]): 23%
Mortality Rate @ 60 minutes (German cockroach; [1]): 40%
Mortality Rate @ 240 minutes (German cockroach; [1]): 50%
Knockdown Rate @ 10 minutes (German cockroach; [2]): 0%
Knockdown Rate @ 15 minutes (German cockroach; [2]): 0%
Knockdown Rate @ 30 minutes (German cockroach; [2]): 0%
Mortality Rate @ 60 minutes (German cockroach; [2]): 38%
Mortality Rate @ 240 minutes (German cockroach; [2]): 60%
Knockdown Rate @ 10 minutes (German cockroach; [3]): 0%
Knockdown Rate @ 15 minutes (German cockroach; [3]): 3%
Knockdown Rate @ 30 minutes (German cockroach; [3]): 45%
Mortality Rate @ 60 minutes (German cockroach; [3]): 100%
Mortality Rate @ 120 minutes (German cockroach; [3]): 100%
Mortality Rate @ 240 minutes (German cockroach; [3]): 100%
Knockdown Rate @ 10 minutes (German cockroach; [4]): 0%
Knockdown Rate @ 15 minutes (German cockroach; [4]): 8%
Knockdown Rate @ 30 minutes (German cockroach; [4]): 60%
Mortality Rate @ 60 minutes (German cockroach; [4]): 100%
Mortality Rate @ 120 minutes (German cockroach; [4]): 100%
Mortality Rate @ 240 minutes (German cockroach; [4]): 100%
Knockdown Rate @ 10 minutes (Red Imported Fire Ant; [5]): 63%
Knockdown Rate @ 15 minutes (Red Imported Fire Ant; [5]): 100%
Knockdown Rate @ 30 minutes (Red Imported Fire Ant; [5]): 100%
Mortality Rate @ 60 minutes (Red Imported Fire Ant; [5]): 100%
Mortality Rate @ 120 minutes (Red Imported Fire Ant; [5]): 100%
Mortality Rate @ 240 minutes (Red Imported Fire Ant; [5]): 100%
Knockdown Rate @ 10 minutes (Red Imported Fire Ant; [4]): 78%
Knockdown Rate @ 15 minutes (Red Imported Fire Ant; [4]): 100%
Knockdown Rate @ 30 minutes (Red Imported Fire Ant; [4]): 100%
Mortality Rate @ 60 minutes (Red Imported Fire Ant; [4]): 100%
Mortality Rate @ 120 minutes (Red Imported Fire Ant; [4]): 100%
Mortality Rate @ 240 minutes (Red Imported Fire Ant; [4]): 100%
Knockdown Rate @ 15 minutes (House Flies; [1]): 0%
Knockdown Rate @ 30 minutes (House Flies; [1]): 0%
Knockdown Rate @ 60 minutes (House Flies; [1]): 19%
Knockdown Rate @ 120 minutes (House Flies; [1]): 19%
Knockdown Rate @ 240 minutes (House Flies; [1]): 48%
Mortality Rate @ 1 day (House Flies; [1]): 3%
Knockdown Rate @ 15 minutes (House Flies; [2]): 0%
Knockdown Rate @ 30 minutes (House Flies; [2]): 19%
Knockdown Rate @ 60 minutes (House Flies; [2]): 59%
Knockdown Rate @ 120 minutes (House Flies; [2]): 63%
Knockdown Rate @ 240 minutes (House Flies; [2]): 100%
Mortality Rate @ 1 day (House Flies; [2]): 63%
Mortality Rate @ 2 hours (Bed Bugs; [3]): 85%
Mortality Rate @ 1 day (Bed Bugs; [3]): 100%
Mortality Rate @ 2 hours (Bed Bugs; [4]): 75%
Mortality Rate @ 1 day (Bed Bugs; [4]): 100%

C/C(=N\C#N)N(C)Cc1ccc(Cl)nc1 [B, (E)-N^1-[(6-chloro-3-pyridyl)methyl]-N^2-cyano-N^1-methylacetamidine]
Knockdown Rate @ 10 minutes (German cockroach; [2]): 0%
Knockdown Rate @ 15 minutes (German cockroach; [2]): 13%
Knockdown Rate @ 30 minutes (German cockroach; [2]): 38%
Mortality Rate @ 60 minutes (German cockroach; [2]): 53%
Mortality Rate @ 240 minutes (German cockroach; [2]): 63%
Knockdown Rate @ 10 minutes (German cockroach; [6]): 0%
Knockdown Rate @ 15 minutes (German cockroach; [6]): 8%
Knockdown Rate @ 30 minutes (German cockroach; [6]): 38%
Mortality Rate @ 60 minutes (German cockroach; [6]): 58%
Mortality Rate @ 240 minutes (German cockroach; [6]): 63%
Knockdown Rate @ 10 minutes (German cockroach; [7]): 10%
Knockdown Rate @ 15 minutes (German cockroach; [7]): 35%
Knockdown Rate @ 30 minutes (German cockroach; [7]): 75%
Mortality Rate @ 60 minutes (German cockroach; [7]): 88%
Mortality Rate @ 120 minutes (German cockroach; [7]): 90%
Mortality Rate @ 240 minutes (German cockroach; [7]): 83%
Knockdown Rate @ 10 minutes (German cockroach; [8]): 8%
Knockdown Rate @ 15 minutes (German cockroach; [8]): 45%
Knockdown Rate @ 30 minutes (German cockroach; [8]): 88%
Mortality Rate @ 60 minutes (German cockroach; [8]): 80%
Mortality Rate @ 120 minutes (German cockroach; [8]): 98%
Mortality Rate @ 240 minutes (German cockroach; [8]): 80%
Knockdown Rate @ 10 minutes (German cockroach; [9]): 38%
Knockdown Rate @ 15 minutes (German cockroach; [9]): 75%
Knockdown Rate @ 30 minutes (German cockroach; [9]): 93%
Mortality Rate @ 60 minutes (German cockroach; [9]): 100%
Mortality Rate @ 120 minutes (German cockroach; [9]): 98%
Mortality Rate @ 240 minutes (German cockroach; [9]): 80%
Knockdown Rate @ 10 minutes (Red Imported Fire Ant; [10]): 0%
Knockdown Rate @ 15 minutes (Red Imported Fire Ant; [10]): 0%
Knockdown Rate @ 30 minutes (Red Imported Fire Ant; [10]): 10%
Mortality Rate @ 60 minutes (Red Imported Fire Ant; [10]): 5%
Mortality Rate @ 120 minutes (Red Imported Fire Ant; [10]): 65%
Mortality Rate @ 240 minutes (Red Imported Fire Ant; [10]): 90%
Knockdown Rate @ 10 minutes (Red Imported Fire Ant; [7]): 10%
Knockdown Rate @ 15 minutes (Red Imported Fire Ant; [7]): 3%
Knockdown Rate @ 30 minutes (Red Imported Fire Ant; [7]): 5%
Mortality Rate @ 60 minutes (Red Imported Fire Ant; [7]): 13%
Mortality Rate @ 120 minutes (Red Imported Fire Ant; [7]): 98%
Mortality Rate @ 240 minutes (Red Imported Fire Ant; [7]): 100%
Knockdown Rate @ 10 minutes (Red Imported Fire Ant; [8]): 0%
Knockdown Rate @ 15 minutes (Red Imported Fire Ant; [8]): 15%
Knockdown Rate @ 30 minutes (Red Imported Fire Ant; [8]): 15%
Mortality Rate @ 60 minutes (Red Imported Fire Ant; [8]): 60%
Mortality Rate @ 120 minutes (Red Imported Fire Ant; [8]): 100%
Mortality Rate @ 240 minutes (Red Imported Fire Ant; [8]): 100%
Knockdown Rate @ 15 minutes (House Flies; [6]): 47%
Knockdown Rate @ 30 minutes (House Flies; [6]): 47%
Knockdown Rate @ 60 minutes (House Flies; [6]): 53%
Knockdown Rate @ 120 minutes (House Flies; [6]): 41%
Knockdown Rate @ 240 minutes (House Flies; [6]): 53%
Mortality Rate @ 1 day (House Flies; [6]): 16%
Knockdown Rate @ 15 minutes (House Flies; [3]): 69%
Knockdown Rate @ 30 minutes (House Flies; [3]): 86%
Knockdown Rate @ 60 minutes (House Flies; [3]): 72%
Knockdown Rate @ 120 minutes (House Flies; [3]): 72%
Knockdown Rate @ 240 minutes (House Flies; [3]): 78%
Mortality Rate @ 1 day (House Flies; [3]): 28%
Mortality Rate @ 2 hours (Bed Bugs; [7]): 30%
Mortality Rate @ 1 day (Bed Bugs; [7]): 95%
Mortality Rate @ 2 hours (Bed Bugs; [8]): 60%
Mortality Rate @ 1 day (Bed Bugs; [8]): 100%
Mortality Rate @ 2 hours (Bed Bugs; [9]): 95%
Mortality Rate @ 1 day (Bed Bugs; [9]): 100%
